Where “and” joins values, the source holds several entries; their conditions need not be identical. Equal entries are not always repeated.
Experiments:
Assay type in all cases: cell-based, human
[1] = test system: SK-MEL-28 (Melanoma); experiment: NCI60 screen (SRB); conditions: one dose 10 µM, 48 h
[2] = test system: RXF 393 (Renal Cancer); experiment: NCI60 screen (SRB); conditions: one dose 10 µM, 48 h
[3] = test system: NCI-H460 (Non-Small Cell Lung Cancer); experiment: NCI60 screen (SRB); conditions: one dose 10 µM, 48 h
[4] = test system: MALME-3M (Melanoma); experiment: NCI60 screen (SRB); conditions: one dose 10 µM, 48 h
[5] = test system: UO-31 (Renal Cancer); experiment: NCI60 screen (SRB); conditions: one dose 10 µM, 48 h
[6] = test system: MDA-MB-468 (Breast Cancer); experiment: NCI60 screen (SRB); conditions: one dose 10 µM, 48 h
[7] = test system: UACC-62 (Melanoma); experiment: NCI60 screen (SRB); conditions: one dose 10 µM, 48 h
[8] = test system: SW-620 (Colon Cancer); experiment: NCI60 screen (SRB); conditions: one dose 10 µM, 48 h
[9] = test system: SNB-19 (CNS Cancer); experiment: NCI60 screen (SRB); conditions: one dose 10 µM, 48 h
[10] = test system: TK-10 (Renal Cancer); experiment: NCI60 screen (SRB); conditions: one dose 10 µM, 48 h
[11] = test system: breast cancer panel; experiment: NCI60 screen (SRB), panel mean; conditions: BC panel; one dose 10 µM; 48 h
[12] = test system: SK-OV-3 (Ovarian Cancer); experiment: NCI60 screen (SRB); conditions: one dose 10 µM, 48 h
[13] = test system: COLO 205 (Colon Cancer); experiment: NCI60 screen (SRB); conditions: one dose 10 µM, 48 h
[14] = test system: MDA-MB-435 (Melanoma); experiment: NCI60 screen (SRB); conditions: one dose 10 µM, 48 h
[15] = test system: A549/ATCC (Non-Small Cell Lung Cancer); experiment: NCI60 screen (SRB); conditions: one dose 10 µM, 48 h
[16] = test system: SR (Leukemia); experiment: NCI60 screen (SRB); conditions: one dose 10 µM, 48 h
[17] = test system: CAKI-1 (Renal Cancer); experiment: NCI60 screen (SRB); conditions: one dose 10 µM, 48 h
[18] = test system: T-47D (Breast Cancer); experiment: NCI60 screen (SRB); conditions: one dose 10 µM, 48 h
[19] = test system: KM12 (Colon Cancer); experiment: NCI60 screen (SRB); conditions: one dose 10 µM, 48 h
[20] = test system: IGROV1 (Ovarian Cancer); experiment: NCI60 screen (SRB); conditions: one dose 10 µM, 48 h
[21] = test system: MOLT-4 (Leukemia); experiment: NCI60 screen (SRB); conditions: one dose 10 µM, 48 h
[22] = test system: HS 578T (Breast Cancer); experiment: NCI60 screen (SRB); conditions: HS 578T; one dose 10 µM; 48 h
[23] = test system: SK-MEL-2 (Melanoma); experiment: NCI60 screen (SRB); conditions: one dose 10 µM, 48 h
[24] = test system: SN12C (Renal Cancer); experiment: NCI60 screen (SRB); conditions: one dose 10 µM, 48 h
[25] = test system: NCI/ADR-RES (Ovarian Cancer); experiment: NCI60 screen (SRB); conditions: one dose 10 µM, 48 h
[26] = test system: NCI 60 cancer cell line panel; experiment: NCI60 screen (SRB), all cell lines; conditions: over the 60-cell line panel; one dose 10 µM; 48 h
[27] = test system: EKVX (Non-Small Cell Lung Cancer); experiment: NCI60 screen (SRB); conditions: one dose 10 µM, 48 h
[28] = test system: HOP-92 (Non-Small Cell Lung Cancer); experiment: NCI60 screen (SRB); conditions: one dose 10 µM, 48 h
[29] = test system: leukemia panel; experiment: NCI60 screen (SRB), panel mean; conditions: one dose 10 µM, 48 h
[30] = test system: HCC-2998 (Colon Cancer); experiment: NCI60 screen (SRB); conditions: one dose 10 µM, 48 h
[31] = test system: NCI-H322M (Non-Small Cell Lung Cancer); experiment: NCI60 screen (SRB); conditions: one dose 10 µM, 48 h
[32] = test system: SF-295 (CNS Cancer); experiment: NCI60 screen (SRB); conditions: one dose 10 µM, 48 h
[33] = test system: HT29 (Colon Cancer); experiment: NCI60 screen (SRB); conditions: one dose 10 µM, 48 h
[34] = test system: MDA-MB-231/ATCC (Breast Cancer); experiment: NCI60 screen (SRB); conditions: one dose 10 µM, 48 h
[35] = test system: HCT-116 (Colon Cancer); experiment: NCI60 screen (SRB); conditions: one dose 10 µM, 48 h
[36] = test system: SK-MEL-5 (Melanoma); experiment: NCI60 screen (SRB); conditions: one dose 10 µM, 48 h
[37] = test system: SNB-75 (CNS Cancer); experiment: NCI60 screen (SRB); conditions: one dose 10 µM, 48 h
[38] = test system: OVCAR-3 (Ovarian Cancer); experiment: NCI60 screen (SRB); conditions: one dose 10 µM, 48 h
[39] = test system: U251 (CNS Cancer); experiment: NCI60 screen (SRB); conditions: one dose 10 µM, 48 h
[40] = test system: NCI-H522 (Non-Small Cell Lung Cancer); experiment: NCI60 screen (SRB); conditions: one dose 10 µM, 48 h
[41] = test system: SF-539 (CNS Cancer); experiment: NCI60 screen (SRB); conditions: one dose 10 µM, 48 h

For `COc1ccc(/C=C/C(c2cc(OC)c(OC)c(OC)c2)n2cncn2)cc1` (stereo not drawn) [Compound 22a, (E)-1-(3-(4-Methoxyphenyl)-1-(3,4,5-trimethoxyphenyl)allyl)-1H-1,2,4-triazole], which growth percent [1] is on record?
The growth percent was 62.59%.

What about the growth percent [2] of the same compound?
Its growth percent is 46.51%.

And the growth percent [3]?
The growth percent was 22.14%.

And the growth percent [4]?
Its growth percent is 61.34%.

And the growth percent [5]?
The growth percent was 64.39%.

And the growth percent [6]?
The growth percent was 40.88%.

And the growth percent [7]?
The growth percent was 33.84%.

What about the growth percent [8] of the same compound?
Its growth percent is 26.63%.

And the growth percent [9]?
Its growth percent is 49.01%.

What about the growth percent [10] of the same compound?
The growth percent was 48.52%.

And the mean growth percentage [11]?
Its mean growth percentage is 40.1%.

What about the growth percent [12] of the same compound?
The growth percent was 35.55%.

What about the growth percent [13] of the same compound?
Its growth percent is 30.72%.

What about the growth percent [14] of the same compound?
The growth percent was −9.62%.

What about the growth percent [15] of the same compound?
The growth percent was 35.48%.

And the growth percent [16]?
Its growth percent is 18.93%.

What about the growth percent [17] of the same compound?
Its growth percent is 51.61%.

And the growth percent [18]?
The growth percent was 30.79%.

And the growth percent [19]?
The growth percent was 30.66%.

What about the growth percent [20] of the same compound?
The growth percent was 64.61%.

And the growth percent [21]?
The growth percent was 39.43%.

What about the growth percent [22] of the same compound?
Its growth percent is 51.18%.

What about the growth percent [23] of the same compound?
Its growth percent is 12.89%.

What about the growth percent [24] of the same compound?
Its growth percent is 62.02%.

What about the growth percent [25] of the same compound?
The growth percent was 36.28%.

And the mean growth percent [26]?
Its mean growth percent is 41.9%.

And the growth percent [27]?
The growth percent was 66.04%.

And the growth percent [28]?
The growth percent was 40.32%.

And the mean growth percentage [29]?
The mean growth percentage was 24.0%.

What about the growth percent [30] of the same compound?
The growth percent was 84.15%.

And the growth percent [31]?
The growth percent was 61.24%.

What about the growth percent [32] of the same compound?
Its growth percent is 22.52%.

What about the growth percent [33] of the same compound?
Its growth percent is 4.96%.

What about the growth percent [34] of the same compound?
The growth percent was 50.05%.

And the growth percent [35]?
Its growth percent is 21.99%.

What about the growth percent [36] of the same compound?
Its growth percent is 33.03%.

What about the growth percent [37] of the same compound?
The growth percent was 51.27%.

What about the growth percent [38] of the same compound?
The growth percent was 9.06%.

What about the growth percent [39] of the same compound?
Its growth percent is 31.77%.

What about the growth percent [40] of the same compound?
The growth percent was 28.37%.

And the growth percent [41]?
The growth percent was 56.52%.

What does the source list for `COc1ccc(C2CC(n3ccnc3)c3cc(OC)c(OC)c(OC)c32)cc1O` (stereo not drawn) [Compound 27a, 5-(3-(1H-Imidazol-1-yl)-5,6,7-trimethoxy-2,3-dihydro-1H-inden-1-yl)-2-methoxyphenol]?
growth percent [1]: 78.29%; growth percent [2]: 70.77%; growth percent [3]: 78.74%; growth percent [4]: 73.18%; growth percent [5]: 79.93%; growth percent [6]: 78.64%; growth percent [7]: 65.53%; growth percent [8]: 62.47%; growth percent [9]: 93.73%; growth percent [10]: 101.23%; mean growth percentage [11]: 79.1%; growth percent [12]: 86.31%; growth percent [13]: 106.99%; growth percent [14]: 5.00%; growth percent [15]: 55.83%; growth percent [16]: 35.42%; growth percent [17]: 74.50%; growth percent [18]: 94.34%; growth percent [19]: 50.59%; growth percent [20]: 82.43%; growth percent [21]: 90.04%; growth percent [22]: 85.38%; growth percent [23]: 89.63%; growth percent [24]: 104.36%; growth percent [25]: 93.87%; mean growth percent [26]: 79.2%; growth percent [27]: 100.83%; growth percent [28]: 59.58%; mean growth percentage [29]: 73.2%; growth percent [30]: 99.22%; growth percent [31]: 101.51%; growth percent [32]: 57.51%; growth percent [33]: 101.76%; growth percent [34]: 81.01%; growth percent [35]: 81.13%; growth percent [36]: 53.15%; growth percent [37]: 90.16%; growth percent [38]: 57.06%; growth percent [39]: 80.36%; growth percent [40]: 50.13%; growth percent [41]: 89.80%

Which growth percent [1] does the source give for `COc1ccc(/C=C/C(c2cc(OC)c(OC)c(OC)c2)n2ccnc2)cc1O` (stereo not drawn) [Compound 23b, (E)-5-(3-(1H-Imidazol-1-yl)-3-(3,4,5-trimethoxyphenyl)prop-1-en-1-yl)-2-methoxyphenol] here?
The growth percent was 58.86%.

And the growth percent [2]?
Its growth percent is 33.07%.

What about the growth percent [3] of the same compound?
Its growth percent is 16.55%.

What about the growth percent [4] of the same compound?
The growth percent was 57.72%.

What about the growth percent [5] of the same compound?
The growth percent was 59.92%.

What about the growth percent [6] of the same compound?
Its growth percent is 40.60%.

What about the growth percent [7] of the same compound?
Its growth percent is 36.37%.

What about the growth percent [8] of the same compound?
Its growth percent is 17.41%.

And the growth percent [9]?
Its growth percent is 47.27%.

And the growth percent [10]?
Its growth percent is 84.45%.

And the mean growth percentage [11]?
The mean growth percentage was 38.1%.

And the growth percent [12]?
The growth percent was 33.54%.

And the growth percent [13]?
The growth percent was 89.81%.

What about the growth percent [14] of the same compound?
The growth percent was −25.56%.

And the growth percent [15]?
Its growth percent is 29.07%.

And the growth percent [16]?
Its growth percent is 6.18%.

What about the growth percent [17] of the same compound?
Its growth percent is 60.21%.

And the growth percent [18]?
Its growth percent is 40.62%.

What about the growth percent [19] of the same compound?
Its growth percent is 29.04%.

What about the growth percent [20] of the same compound?
The growth percent was 55.74%.

What about the growth percent [21] of the same compound?
Its growth percent is 31.88%.

And the growth percent [22]?
The growth percent was 32.05%.

And the growth percent [23]?
Its growth percent is 41.65%.

What about the growth percent [24] of the same compound?
The growth percent was 57.15%.

And the growth percent [25]?
The growth percent was 45.70%.

And the mean growth percent [26]?
The mean growth percent was 39.7%.

And the growth percent [27]?
The growth percent was 81.22%.

And the growth percent [28]?
Its growth percent is 30.49%.

What about the mean growth percentage [29] of the same compound?
Its mean growth percentage is 11.2%.

And the growth percent [30]?
Its growth percent is 76.97%.

What about the growth percent [31] of the same compound?
The growth percent was 45.84%.

And the growth percent [32]?
The growth percent was 16.59%.

What about the growth percent [33] of the same compound?
Its growth percent is 70.97%.

And the growth percent [34]?
Its growth percent is 53.0% and 52.97%.

What about the growth percent [35] of the same compound?
Its growth percent is 16.67%.

And the growth percent [36]?
The growth percent was 16.98%.

What about the growth percent [37] of the same compound?
Its growth percent is 20.04%.

And the growth percent [38]?
Its growth percent is 4.86%.

And the growth percent [39]?
The growth percent was 27.12%.

And the growth percent [40]?
The growth percent was 24.65%.

What about the growth percent [41] of the same compound?
Its growth percent is 23.09%.
